SMILES	melting point [°C]
Nc1ncnc2c1c(-c1ccc(Oc3ccccc3)cc1)nn2[C@H]1CC[C@H](N2CCNCC2)CC1.O=C(O)/C=C\C(=O)O.O=C(O)/C=C\C(=O)O.O=C(O)/C=C\C(=O)O	153 to 155
Nc1ncnc2c1c(-c1ccc(Oc3ccccc3)cc1)nn2[C@H]1CC[C@@H](N2CCNCC2)CC1.O=C(O)/C=C\C(=O)O.O=C(O)/C=C\C(=O)O.O=C(O)/C=C\C(=O)O	173 to 175
Nc1ncnc2c1c(-c1ccc(Oc3ccccc3)cc1)nn2C1CCOCC1	187 to 187.5
Nc1ncnc2c1c(-c1ccc(Oc3ccccc3)cc1)nn2C1CCC2(CC1)OCCO2	200 to 202.5

Reference: patent publication US6921763B2, “Pyrazolopyrimidines as therapeutic agents” (Abbott Laboratories, priority 1999, dated 2005)
